For one test, the target named is CDK12/CycK (Homo sapiens, UniProt Q9NYV4). Briefly: CDK12/CycK high ATP kinase assay (TR-FRET, 2 mM ATP). Conditions: 2 mM ATP (high ATP); median; read-out: CDK12/CyclinK, 2 mM ATP (high ATP), IC50-[mol/l] (median). It counts as biochemical. The method, boiled down:
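His-tagged human CDK12/CycK (~0.75 nM) pre-incubated 15 min with compound, then 60 min at 22 °C with 2 mM ATP and 1 µM biotinylated peptide (HEPES pH 7.5, 20 mM MgCl2). EDTA stop; phospho-Ser62 antibody/Eu anti-rabbit and streptavidin-XL665 TR-FRET, 665/620 nm ratio normalised to give IC50.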

Test [1] relates to BRCA1 mRNA expression in MDA-MB-231 cells. Briefly: qRT-PCR assay: BRCA1 mRNA expression in MDA-MB-231. The test is classed as cell-based, human. Conditions: Homo sapiens, MDA-MB-231, Inhibition of BRCA1 mRNA expression in MDA-MB-231 cells; median; read-out: RTqPCR-MDA-MB-231, IC50, BRCA1 (median). The method, boiled down:
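Cells were seeded at 200,000 cells/well, left 24 h, then exposed continuously to test substances for 24 h. Total RNA (600 ng) was reverse-transcribed to cDNA and amplified by qPCR, and transcript levels were normalised to GAPDH housekeeping expression.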

In test [2] the test system is MDA-MB-231, human breast cancer cells. Briefly: Proliferation assay MDA-MB-231 (crystal violet, 4 days). The test is classed as cell-based. Conditions: MDA-MB-231 cells, median, read-out: Prolif-MDA MB-231, IC50-[mol/l] (median). The method, boiled down: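 Cells seeded at 4,000/well in medium with 10% FCS; after 24 h, compounds added at 0.01-10 µmol/L (0.1% DMSO) for 4 days. Glutaraldehyde-fixed, crystal violet-stained, absorbance at 595 nm normalized to zero-point plate (0%) and untreated cells (100%); IC50 by 4-parameter fit.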

This is an account of results in patent US20230117034A1, “PYRAZOLOTRIAZINES” (Bayer Aktiengesellschaft, priority 2019, published 2023).

pIC50: −log10 of the molar value. Like-named read-outs stand apart in the source and are kept apart here.

CDK12/CycK, sequence (Q9NYV4 with tags, fused parts or gaps): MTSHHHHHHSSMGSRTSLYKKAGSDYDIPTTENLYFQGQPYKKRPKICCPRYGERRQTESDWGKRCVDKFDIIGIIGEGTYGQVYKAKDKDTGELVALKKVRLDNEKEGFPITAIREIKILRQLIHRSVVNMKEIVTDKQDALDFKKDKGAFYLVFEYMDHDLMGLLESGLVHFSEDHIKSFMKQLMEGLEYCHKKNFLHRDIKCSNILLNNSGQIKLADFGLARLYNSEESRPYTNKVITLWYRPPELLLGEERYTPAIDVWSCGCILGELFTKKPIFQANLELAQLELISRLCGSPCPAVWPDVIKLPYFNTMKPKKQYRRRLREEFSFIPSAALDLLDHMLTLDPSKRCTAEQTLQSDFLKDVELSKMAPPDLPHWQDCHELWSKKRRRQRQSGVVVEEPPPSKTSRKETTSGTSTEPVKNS
CDK12/CycK, sequence (O75909 1-300 partner limits assumed): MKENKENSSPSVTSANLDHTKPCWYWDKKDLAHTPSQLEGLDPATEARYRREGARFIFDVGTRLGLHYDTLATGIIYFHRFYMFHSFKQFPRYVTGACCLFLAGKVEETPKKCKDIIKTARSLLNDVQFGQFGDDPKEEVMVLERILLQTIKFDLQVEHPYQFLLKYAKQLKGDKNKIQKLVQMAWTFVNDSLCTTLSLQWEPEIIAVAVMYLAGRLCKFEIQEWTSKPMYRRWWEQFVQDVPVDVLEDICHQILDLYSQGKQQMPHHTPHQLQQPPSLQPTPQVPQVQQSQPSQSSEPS

Consider `Brc1cnn2c(NCc3nc4ccccc4[nH]3)nc(NCC3CC3)nc12` [Example 284, N^4-[(1H-benzimidazol-2-yl)methyl]-8-bromo-N^2-(cyclopropylmethyl)pyrazolo[1,5-a][1,3,5]triazine-2,4-diamine], for which the pIC50 on CDK12/CycK is 5.26; in test [1], 7.62; in test [2] (Homo sapiens, MDA-MB-231, 96 h) it was 7.13.
In the case of `Brc1cnn2c(NCc3nc4ccccc4[nH]3)nc(N3CCC4(CCN4)CC3)nc12` [Example 291, N-[(1H-benzimidazol-2-yl)methyl]-8-bromo-2-(1,7-diazaspiro[3.5]nonan-7-yl)pyrazolo[1,5-a][1,3,5]triazin-4-amine], the pIC50 is 4.97 on CDK12/CycK; 7.82 in test [1]; 7.23 in test [2] (Homo sapiens, MDA-MB-231, 96 h).
Regarding `Cc1cc2nc(CNc3nc(N4CCN(C)CC4)nc4c(C5CC5)cnn34)[nH]c2cc1C` [Example 312, 8-cyclopropyl-N-[(5,6-dimethyl-1H-benzimidazol-2-yl)methyl]-2-(4-methylpiperazin-1-yl)pyrazolo[1,5-a][1,3,5]triazin-4-amine], the pIC50 at CDK12/CycK was 4.99; in test [1], 8.69; in test [2] (Homo sapiens, MDA-MB-231, 96 h), 8.49.
Taken in the same sequence, the figures for `CN(CC(C)(C)O)c1nc(NCc2nc3cc(Cl)c(Cl)cc3[nH]2)n2ncc(C3CC3)c2n1` [Example 306, 1-[(8-cyclopropyl-4-{[(5,6-dichloro-1H-benzimidazol-2-yl)methyl]amino}pyrazolo[1,5-a][1,3,5]triazin-2-yl)(methyl)amino]-2-methylpropan-2-ol] were 5.73, 8.16 and 8.11.
As to `Fc1cccc2[nH]c(CNc3nc(N4C[C@H]5CC[C@@H](C4)N5)nc4c(C5CC5)cnn34)nc12` [Example 296, 8-cyclopropyl-2-[(1R,5S)-3,8-diazabicyclo[3.2.1]octan-3-yl]-N-[(4-fluoro-1H-benzimidazol-2-yl)methyl]pyrazolo[1,5-a][1,3,5]triazin-4-amine], the pIC50 was 5.61 at CDK12/CycK; 8.90 in test [1]; 8.36 in test [2] (Homo sapiens, MDA-MB-231, 96 h).
In the same order, the values of `Cc1ccnc2[nH]c(CNc3nc(N4CCOCC4)nc4c(Br)cnn34)nc12` [Example 20, 8-bromo-N-[(7-methyl-3H-imidazo[4,5-b]pyridin-2-yl)methyl]-2-(morpholin-4-yl)pyrazolo[1,5-a][1,3,5]triazin-4-amine] are 5.76, 8.17 and 7.51.
As to `Fc1cccc2[nH]c(CNc3nc(N4CCOCC4)nc4c(CC(F)(F)F)cnn34)nc12` [Example 303, N-[(4-fluoro-1H-benzimidazol-2-yl)methyl]-2-(morpholin-4-yl)-8-(2,2,2-trifluoroethyl)pyrazolo[1,5-a][1,3,5]triazin-4-amine], the pIC50 was 5.77 on CDK12/CycK; 8.32 in test [1]; 7.58 in test [2] (Homo sapiens, MDA-MB-231, 96 h).
Taken in the same sequence, the figures for `CN(CC(C)(C)O)c1nc(NCc2nc3c(F)cccc3[nH]2)n2ncc(C3CC3)c2n1` [Example 295, 1-[(8-cyclopropyl-4-{[(4-fluoro-1H-benzimidazol-2-yl)methyl]amino}pyrazolo[1,5-a][1,3,5]triazin-2-yl)(methyl)amino]-2-methylpropan-2-ol] were 6.08, 8.32 and 7.63.
In the same order, the values of `c1ccc2[nH]c(CNc3nc(N4C[C@@H]5CCCN[C@@H]5C4)nc4c(C5CC5)cnn34)nc2c1` [Example 249, N-[(1H-benzimidazol-2-yl)methyl]-8-cyclopropyl-2-[(4aS,7aS)-octahydro-6H-pyrrolo[3,4-b]pyridin-6-yl]pyrazolo[1,5-a][1,3,5]triazin-4-amine] are less than 4.77, 8.24 and 7.39.
`N[C@@H]1CN(c2nc(NCc3nc4ccccc4[nH]3)n3ncc(Br)c3n2)CC12CC2` [Example 251, 2-[(7S)-7-amino-5-azaspiro[2.4]heptan-5-yl]-N-[(1H-benzimidazol-2-yl)methyl]-8-bromopyrazolo[1,5-a][1,3,5]triazin-4-amine]: the pIC50 on CDK12/CycK was 6.01; in test [1], 8.83; in test [2] (Homo sapiens, MDA-MB-231, 96 h), 8.56.
Turning to `CN1CCN(c2nc(NCc3nc4cc(F)c(Cl)cc4[nH]3)n3ncc(C4CC4)c3n2)CC1` [Example 309, N-[(6-chloro-5-fluoro-1H-benzimidazol-2-yl)methyl]-8-cyclopropyl-2-(4-methylpiperazin-1-yl)pyrazolo[1,5-a][1,3,5]triazin-4-amine], the pIC50 on CDK12/CycK was less than 4.70; in test [1], 8.23; in test [2] (Homo sapiens, MDA-MB-231, 96 h), 8.20.
On to `CC1CN(C)CCN1c1nc(NCc2nc3ccccc3[nH]2)n2ncc(Br)c2n1` (single isomer, unassigned; enantiomer 1) [Example 260, N-(1H-benzimidazol-2-ylmethyl)-8-bromo-2-[(2R or S)-2,4-dimethylpiperazin-1-yl]pyrazolo[1,5-a][1,3,5]triazin-4-amine (Enantiomer 1)], for which the pIC50 at CDK12/CycK was 4.91; in test [1] it was 8.47; in test [2] it was 7.87.
In the case of `Fc1cc2nc(CNc3nc(N4CCOCC4)nc4c(C5CC5)cnn34)[nH]c2cc1F` [Example 318, 8-cyclopropyl-N-[(5,6-difluoro-1H-benzimidazol-2-yl)methyl]-2-(morpholin-4-yl)pyrazolo[1,5-a][1,3,5]triazin-4-amine], the pIC50 is 5.87 on CDK12/CycK; 9.01 in test [1]; 8.37 in test [2] (Homo sapiens, MDA-MB-231, 96 h).
In the same order, the values of `Fc1ccc2[nH]c(CNc3nc(N4CCOCC4)nc4c(C5CCC5)cnn34)nc2c1F` [Example 264, 8-cyclobutyl-N-[(4,5-difluoro-1H-benzimidazol-2-yl)methyl]-2-(morpholin-4-yl)pyrazolo[1,5-a][1,3,5]triazin-4-amine] are 5.65, 8.20 and 7.64.
In the same order, the values of `Brc1cnn2c(NCc3nc4ccccc4[nH]3)nc(N3C[C@H]4CNC[C@H]4C3)nc12` [Example 283, N-[(1H-benzimidazol-2-yl)methyl]-8-bromo-2-[(3aR,6aS)-hexahydropyrrolo[3,4-c]pyrrol-2(1H)-yl]pyrazolo[1,5-a][1,3,5]triazin-4-amine] are 4.74, 8.04 and 7.46.
In the same order, the values of `Brc1cnn2c(NCc3ncc(-c4ccccc4)[nH]3)nc(N3CCOCC3)nc12` [Example 23, 8-bromo-2-(morpholin-4-yl)-N-[(5-phenyl-1H-imidazol-2-yl)methyl]pyrazolo[1,5-a][1,3,5]triazin-4-amine] are 5.81, 8.42 and 7.47.
On to `Fc1ccc2[nH]c(CNc3nc(N4CCOCC4)nc4c(CC(F)(F)F)cnn34)nc2c1F` [Example 268, N-[(4,5-difluoro-1H-benzimidazol-2-yl)methyl]-2-(morpholin-4-yl)-8-(2,2,2-trifluoroethyl)pyrazolo[1,5-a][1,3,5]triazin-4-amine], for which the pIC50 on CDK12/CycK was 5.67; in test [1], 8.49; in test [2] (Homo sapiens, MDA-MB-231, 96 h), 8.03.
Taken in the same sequence, the figures for `CNC1CCN(c2nc(NCc3nc4ccccc4[nH]3)n3ncc(Br)c3n2)CC1` [Example 272, N-[(1H-benzimidazol-2-yl)methyl]-8-bromo-2-[4-(methylamino)piperidin-1-yl]pyrazolo[1,5-a][1,3,5]triazin-4-amine] were less than 4.70, 8.10 and 7.56.
